According to US20120313040A1, “COATING LIQUID, OPTICAL ANISOTROPIC FILM AND IMAGE DISPLAY DEVICE” (NITTO DENKO CORPORATION, priority 2011, published 2012):
Read-outs that look alike come from different tables or passages of the source.

Columns and labels:
[1] = Observation of liquid crystal phase of the coating liquid under a polarizing microscope; format: physicochemical; conditions: 30 mass % in ion-exchanged water, observed at 23° C.
Excerpt: A small amount of the coating liquid was sandwiched between two glass slides, and a liquid crystal phase thereof was observed using a polarizing microscope (manufactured by Olympus Corporation, product name: “OPTIPHOT-POL”) equipped with a large-sized sample heating/cooling stage for microscope (manufactured by Japan High Tech Co., Ltd., product: name “10013L”).

[2] = Dissolution in ion-exchanged water to prepare a 30 mass % coating liquid; format: physicochemical
Procedure: The lyotropic liquid crystalline compound of formula (4) was dissolved in ion-exchanged water, thereby preparing a coating liquid having a concentration of the lyotropic liquid crystalline compound of 30 mass %.
The lyotropic liquid crystalline compound of formula (5) was dissolved in ion-exchanged water, thereby preparing a coating liquid having a concentration of the lyotropic liquid crystalline compound of 30 mass %.
In Comparative Example 1, there was used a perylenetetracarboxylic acid diimide represented by formula (6), which was an intermediate product in Synthesis Example 1 of Lyotropic Liquid Crystalline Compound. Using this compound, it was tried to obtain a coating liquid having a concentration of the lyotropic liquid crystalline compound of 30 mass % in the same manner as in Example 1.
In Comparative Example 2, there was used a compound represented by formula (7), which was an intermediate product in Synthesis Example 2 of Lyotropic Liquid Crystalline Compound. Using this compound, it was tried to obtain a coating liquid having a concentration of the lyotropic liquid crystalline compound of 30 mass % in the same manner as in Example 1.

| Structure (SMILES) | liquid crystal phase of coating liquid [1] | solubility in ion-exchanged water [2] | solubility in ion-exchanged water ([2]; ion-exchanged water, target concentration 30 mass %) |
| --- | --- | --- | --- |
| O=c1c2ccc3c4ccc5c6c(ccc(c7ccc(c2c37)c2nc3cnccc3n12)c46)c(=O)n1c2ccncc2nc51 [formula (7), reference compound] | no liquid crystal phase | scarcely dissolved in ion-exchanged water |  |
| C[n+]1ccc2c(c1)nc1c3ccc4c5ccc6c(=O)n7c8cc[n+](C)cc8nc7c7ccc(c8ccc(c(=O)n21)c3c84)c5c67 [formula (5)] | nematic liquid crystal phase | dissolved in water easily and well |  |
| C[n+]1ccc(N2C(=O)c3ccc4c5ccc6c7c(ccc(c8ccc(c3c48)C2=O)c75)C(=O)N(c2cc[n+](C)cc2)C6=O)cc1 [formula (4), N,N′-bis(4-N-methylpyridyl)-3,4,9,10-perylenecarboxylic acid diimide dichloride] | nematic liquid crystal phase |  | dissolved in water easily and well |
| O=C1c2ccc3c4ccc5c6c(ccc(c7ccc(c2c37)C(=O)N1c1ccncc1)c64)C(=O)N(c1ccncc1)C5=O [formula (6), perylenetetracarboxylic acid diimide, reference compound] |  | scarcely dissolved in ion-exchanged water |  |
